From patent US9611278B2 (Merck Sharp & Dohme Corp., priority 2013, dated 2017) come the findings set out here.

In this assay the target is T1, sGC α1/β1 heterodimer stably expressed in CHO-K1 cells (CHO-K1/sGC) (Homo sapiens, UniProt Q02108+Q02153).
T1 construct: expressed in transfected cells
T1 sequence (Q02108 1-690): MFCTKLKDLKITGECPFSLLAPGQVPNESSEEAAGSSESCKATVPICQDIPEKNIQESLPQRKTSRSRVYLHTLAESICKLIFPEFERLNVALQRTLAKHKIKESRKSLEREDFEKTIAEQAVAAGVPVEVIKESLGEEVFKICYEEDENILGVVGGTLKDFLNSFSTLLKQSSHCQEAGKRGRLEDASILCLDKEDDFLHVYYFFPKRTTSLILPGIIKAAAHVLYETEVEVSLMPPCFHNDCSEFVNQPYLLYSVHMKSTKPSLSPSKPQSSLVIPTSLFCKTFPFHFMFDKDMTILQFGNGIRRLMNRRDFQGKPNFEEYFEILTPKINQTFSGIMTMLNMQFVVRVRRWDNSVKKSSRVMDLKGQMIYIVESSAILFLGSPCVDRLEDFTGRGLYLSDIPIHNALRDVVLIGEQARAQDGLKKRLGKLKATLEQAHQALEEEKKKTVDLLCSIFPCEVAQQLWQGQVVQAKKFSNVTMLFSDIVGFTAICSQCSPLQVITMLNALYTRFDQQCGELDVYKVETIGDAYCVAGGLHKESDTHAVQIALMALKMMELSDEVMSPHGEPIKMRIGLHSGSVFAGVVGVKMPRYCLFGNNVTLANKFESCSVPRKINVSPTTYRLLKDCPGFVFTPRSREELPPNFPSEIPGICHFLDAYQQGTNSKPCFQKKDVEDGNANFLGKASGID
T1 sequence (Q02153 1-619): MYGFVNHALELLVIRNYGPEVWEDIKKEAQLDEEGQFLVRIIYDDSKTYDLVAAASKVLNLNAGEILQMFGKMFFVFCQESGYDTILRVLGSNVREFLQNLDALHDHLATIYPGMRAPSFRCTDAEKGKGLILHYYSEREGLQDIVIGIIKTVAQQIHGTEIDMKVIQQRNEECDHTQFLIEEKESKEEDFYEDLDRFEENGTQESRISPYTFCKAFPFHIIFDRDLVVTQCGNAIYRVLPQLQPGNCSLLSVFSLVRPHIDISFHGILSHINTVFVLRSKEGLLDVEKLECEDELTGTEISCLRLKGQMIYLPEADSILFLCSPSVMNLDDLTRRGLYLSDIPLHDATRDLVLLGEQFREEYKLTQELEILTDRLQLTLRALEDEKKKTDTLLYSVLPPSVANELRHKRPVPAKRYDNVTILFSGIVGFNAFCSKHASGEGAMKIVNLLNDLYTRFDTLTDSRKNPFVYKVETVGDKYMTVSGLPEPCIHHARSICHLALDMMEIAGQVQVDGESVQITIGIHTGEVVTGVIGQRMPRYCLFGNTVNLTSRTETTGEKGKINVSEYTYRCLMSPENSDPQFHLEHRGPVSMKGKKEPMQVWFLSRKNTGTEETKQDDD
Briefly: Cell-based sGC Functional Assay (CASA Assay). The settings on record: for Emax: CHO-K1, activation as percentage of maximum cGMP production of Compound A (set to 100%), read-out: % Act.; for EC50: inflection point of cGMP generation in CHO-K1/sGC cells, 4P fit, 1 hr at 37° C., read-out: IP. Put shortly: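 CHO-K1 cells stably expressing human sGC α1/β1 were incubated with compound for 1 h at 37 °C in buffer with 0.5 mM IBMX and 2.5% DMSO, with or without 1 μM DETA-NO. Intracellular cGMP was read by HTRF and expressed as percentage of maximal activation by reference activator Compound A. Values came from a 4-parameter fit.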

With `CCCn1cc(C2(C)C(=O)Nc3nc(-c4nc(CCC(F)(F)C(F)(F)F)nc5c4cnn5C)nc(N)c32)nn1` (single isomer, unassigned) [Example 71, 4-Amino-5-methyl-2-(1-methyl-6-(3,3,4,4,4-pentafluorobutyl)-1H-pyrazolo[3,4-d]pyrimidin-4-yl)-5-(1-propyl-1H-1,2,3-triazol-4-yl)-5,7-dihydro-6H-pyrrolo[2,3-d]pyrimidin-6-one], the Emax stood at 169% and the EC50 was determined as 217 nM.
The like results for `[2H]C([2H])([2H])n1ncc2c(-c3nc(N)c4c(n3)NC(=O)C4(C)c3ccnc(C(=O)OC)c3)nc(CCC(F)(F)C(F)(F)F)nc21` (stereo not shown) [Example 18, Methyl 4-(4-amino-5-methyl-2-(1-(methyl-d3)-6-(3,3,4,4,4-pentafluorobutyl)-1H-pyrazolo[3,4-d]pyrimidin-4-yl)-6-oxo-6,7-dihydro-5H-pyrrolo[2,3-d]pyrimidin-5-yl)picolinate] were, in that order, 88% and 411 nM.
For `[2H]C([2H])([2H])n1ncc2c(-c3nc(N)c4c(n3)NC(=O)C4(C)c3coc(C)n3)nc(CCC(F)(F)C(F)(F)F)nc21` (stereo not shown) [Example 11, 4-Amino-5-methyl-2-(1-(methyl-d3)-6-(3,3,4,4,4-pentafluorobutyl)-1H-pyrazolo[3,4-d]pyrimidin-4-yl)-5-(2-methyloxazol-4-yl)-5,7-dihydro-6H-pyrrolo[2,3-d]pyrimidin-6-one], in that order: 126% and 626 nM.
The like results for `CC(C)n1cc(C2(C3CC3)C(=O)Nc3nc(-c4nc(CCC(F)(F)C(F)(F)F)nc5c4cnn5C)nc(N)c32)cn1` (stereo not shown) [Example 26, 4-Amino-5-cyclopropyl-5-(1-isopropyl-1H-pyrazol-4-yl)-2-(1-methyl-6-(3,3,4,4,4-pentafluorobutyl)-1H-pyrazolo[3,4-d]pyrimidin-4-yl)-5,7-dihydro-6H-pyrrolo[2,3-d]pyrimidin-6-one] were, in that order, 72% and 230 nM.
For the compound `[2H]C([2H])([2H])n1ncc2c(-c3nc(N)c4c(n3)NC(=O)C4(C)c3ccc(F)cn3)nc(CCC(F)(F)C(F)(F)F)nc21` (stereo not shown) [Example 2, 4-Amino-5-(5-fluoropyridin-2-yl)-5-methyl-2-(1-(methyl-d3)-6-(3,3,4,4,4-pentafluorobutyl)-1H-pyrazolo[3,4-d]pyrimidin-4-yl)-5H-pyrrolo[2,3-d]pyrimidin-6(7H)-one], the Emax turned out to be 135% and the EC50 was determined as 72 nM.
`[2H]C([2H])([2H])n1ncc2c(-c3nc(N)c4c(n3)NC(=O)C4(C)c3cncc(OC)c3)nc(CCC(F)(F)C(F)(F)F)nc21` (stereo not shown) [Example 14, 4-Amino-5-(5-methoxypyridin-3-yl)-5-methyl-2-(1-(methyl-d3)-6-(3,3,4,4,4-pentafluorobutyl)-1H-pyrazolo[3,4-d]pyrimidin-4-yl)-5,7-dihydro-6H-pyrrolo[2,3-d]pyrimidin-6-one]: the Emax is 131% and the EC50 was 709 nM.
As for `Cn1ncc2c(-c3nc(N)c4c(n3)NC(=O)C4(C)c3cn(CC4CC4)nn3)nc(CCC(F)(F)C(F)(F)F)nc21` (stereo not shown) [Example 65, 4-Amino-5-(1-(cyclopropylmethyl)-1H-1,2,3-triazol-4-yl)-5-methyl-2-(1-methyl-6-(3,3,4,4,4-pentafluorobutyl)-1H-pyrazolo[3,4-d]pyrimidin-4-yl)-5,7-dihydro-6H-pyrrolo[2,3-d]pyrimidin-6-one], the Emax stood at 111% and the EC50 came to 169 nM.
As to `[2H]C([2H])([2H])n1ncc2c(-c3nc(N)c4c(n3)NC(=O)C4(C)c3ccc(C(F)(F)F)nc3)nc(CCC(F)(F)C(F)(F)F)nc21` (stereo not shown) [Example 10, 4-Amino-5-methyl-2-(1-(methyl-d3)-6-(3,3,4,4,4-pentafluorobutyl)-1H-pyrazolo[3,4-d]pyrimidin-4-yl)-5-(6-(trifluoromethyl)pyridin-3-yl)-5,7-dihydro-6H-pyrrolo[2,3-d]pyrimidin-6-one], the Emax amounted to 114% and the EC50 was 665 nM.
For `[2H]C([2H])([2H])n1ncc2c(-c3nc(N)c4c(n3)NC(=O)C4(c3nnc(C4CC4)o3)C3CC3)nc(CCC(F)(F)F)nc21` (stereo not shown) [Example 47, 4-Amino-5-cyclopropyl-5-(5-cyclopropyl-1,3,4-oxadiazol-2-yl)-2-(1-(methyl-d3)-6-(3,3,3-trifluoropropyl)-1H-pyrazolo[3,4-d]pyrimidin-4-yl)-5,7-dihydro-6H-pyrrolo[2,3-d]pyrimidin-6-one], in that order: 108% and 2080 nM.
`CC(C)n1cc(C2(C)C(=O)Nc3nc(-c4nc(CCC(F)(F)C(F)(F)F)nc5c4cnn5C)ncc32)nn1` (stereo not shown) [Example 81]: the Emax was determined as 102% and the EC50 was found to be 620 nM.
For `CCC1(c2nnc(C3CC3)o2)C(=O)Nc2nc(-c3nc(CCC(F)(F)C(F)(F)F)nc4c3cnn4C)nc(N)c21` (stereo not shown) [Example 53, 4-Amino-5-(5-cyclopropyl-1,3,4-oxadiazol-2-yl)-5-ethyl-2-(1-methyl-6-(3,3,4,4,4-pentafluorobutyl)-1H-pyrazolo[3,4-d]pyrimidin-4-yl)-5,7-dihydro-6H-pyrrolo[2,3-d]pyrimidin-6-one], in that order: 165% and 280 nM.
With `Cn1cc(C2(C3CC3)C(=O)Nc3nc(-c4nc(CCC(F)(F)C(F)(F)F)nc5c4cnn5C)nc(N)c32)cn1` (stereo not shown) [Example 15, 4-Amino-5-cyclopropyl-5-(1-methyl-1H-pyrazol-4-yl)-2-(1-methyl-6-(3,3,4,4,4-pentafluorobutyl)-1H-pyrazolo[3,4-d]pyrimidin-4-yl)-5,7-dihydro-6H-pyrrolo[2,3-d]pyrimidin-6-one], the Emax came out at 100% and the EC50 amounted to 475 nM.
The like results for `Cn1ncc2c(-c3nc(N)c4c(n3)NC(=O)C4(C)c3ccc(F)cn3)nc(CCC3CCC3)nc21` (stereo not shown) [Example 30, 4-Amino-2-(6-(2-cyclobutylethyl)-1-methyl-1H-pyrazolo[3,4-d]pyrimidin-4-yl)-5-(5-fluoropyridin-2-yl)-5-methyl-5,7-dihydro-6H-pyrrolo[2,3-d]pyrimidin-6-one] were, in that order, 98% and 35 nM.
For `Cn1ncc2c(-c3nc(N)c4c(n3)NC(=O)C4(C)c3ccc(F)cn3)nc(CCC3CC(F)(F)C3)nc21` (stereo not shown) [Example 29, 4-Amino-2-(6-(2-(3,3-difluorocyclobutyl)ethyl)-1-methyl-1H-pyrazolo[3,4-d]pyrimidin-4-yl)-5-(5-fluoropyridin-2-yl)-5-methyl-5,7-dihydro-6H-pyrrolo[2,3-d]pyrimidin-6-one], in that order: 121% and 230 nM.
Regarding `Cn1ncc(C2(C)C(=O)Nc3nc(-c4nc(CCC(F)(F)C(F)(F)F)nc5c4cnn5C)nc(N)c32)n1` (stereo not shown) [Example 80, 4-Amino-5-methyl-5-(2-methyl-2H-1,2,3-triazol-4-yl)-2-(1-methyl-6-(3,3,4,4,4-pentafluorobutyl)-1H-pyrazolo[3,4-d]pyrimidin-4-yl)-5,7-dihydro-6H-pyrrolo[2,3-d]pyrimidin-6-one], the Emax was 90% and the EC50 is 408 nM.
The like results for `CC(C)n1ncc(C2(C)C(=O)Nc3nc(-c4nc(CCC(F)(F)C(F)(F)F)nc5c4cnn5C)nc(N)c32)n1` (stereo not shown) [Example 61, 4-Amino-5-(2-isopropyl-2H-1,2,3-triazol-4-yl)-5-methyl-2-(1-methyl-6-(3,3,4,4,4-pentafluorobutyl)-1H-pyrazolo[3,4-d]pyrimidin-4-yl)-5,7-dihydro-6H-pyrrolo[2,3-d]pyrimidin-6-one] were, in that order, 110% and 269 nM.
The like results for `Cn1cc(C2(C)C(=O)Nc3nc(-c4nc(CCC(F)(F)C(F)(F)F)nc5c4cnn5C)nc(N)c32)cn1` (stereo not shown) [Example 23, 4-Amino-5-methyl-5-(1-methyl-1H-pyrazol-4-yl)-2-(1-methyl-6-(3,3,4,4,4-pentafluorobutyl)-1H-pyrazolo[3,4-d]pyrimidin-4-yl)-5,7-dihydro-6H-pyrrolo[2,3-d]pyrimidin-6-one] were, in that order, 88% and 435 nM.
